# Laboratory results from US8790718B2, “Method of disinfection or infection control against norovirus” (Hiroshima University, priority 2007, dated 2014).
# Tested on: norovirus
# Assay: Anti-norovirus characteristics test (viral genome RNA by real-time PCR)
# Conditions: comparative test results of Example 1
# Method: A frozen stock solution of a norovirus isolated from stools of a patient and cryopreserved at −80° C. was thawed on ice. A hundred microliters of the norovirus stock solution was diluted ten times with phosphate-buffered saline (PBS) and was spun in a refrigerated centrifuge at 10,000 rpm for 20 minutes to remove a precipitate. The resulting “norovirus test solution” (950 μL solution) was used in the following examples.
# The “real-time PCR” in the following examples was performed in accordance with a document “Detection Method for Norovirus” attached to a notice (Notice No. 1105001 from the Inspection and Safety Division, dated Nov. 5, 2003. See http://www.mhlw.go.jp/topics/syokuchu/kanren/kanshi/031105-1.html) issued by the Director of the Inspection and Safety Division, Department of Food Safety, Pharmaceutical and Food Safety Bureau, Ministry of Health, Labour and Welfare.
# The real-time PCR counts the number of viral genomes in the states of […] in FIG. 1. In the following examples, only elimination of (the RNA of) a norovirus illustrated in (c) is rated as “efficacious”, and the survival of (the RNA of) a norovirus illustrated in (b) is rated as “inefficacious” even if the infectivity and proliferative capacity of the norovirus are lost. Nevertheless, an anti-norovirus composition according to the present invention is rated as more efficacious than conventional compositions. Taking the state of a norovirus illustrated in (b) into account, an anti-norovirus composition according to the present invention should therefore have still higher practical efficacy.
# Twenty-five microliters of the norovirus test solution and 25 μL of each of the compositions (A1 to A5 or B1 to B7) were sufficiently mixed. […] After the diluted solution was subjected to treatments, such as RNA extraction and cDNA synthesis, viral genome RNAs remaining in the diluted solution was counted by real-time PCR. […] These measured values for the sample solutions and the corresponding controls were compared to determine the inhibition rates of the compositions for the norovirus.
row,Compound,efficacy for a norovirus (in words)
1,O=C(O)c1cc(O)c(O)c(O)c1 [gallic acid],no efficacy
2,"CCCOC(=O)c1cc(O)c(O)c(O)c1 [propyl gallate, gallic acid propyl ester]",no efficacy
3,catechin,no efficacy
